{"source": "paper PMC5218480", "about": "(PLoS ONE, 2017)", "test_system": "MV-4-11 cells", "assay": "Gene expression microarray analysis (Affymetrix PrimeView) and GSEA", "type": "cell-based, human", "parameters": "RFU PODN (11730768_x_at) / Fold change /veh PODN (11730768_x_at) / RFU LINC00158 (11744669_a_at) / Fold change /veh LINC00158 (11744669_a_at) / RFU DUSP10 (11751237_a_at) / Fold change /veh DUSP10 (11751237_a_at) / RFU ID3 (11757404_x_at) / Fold change /veh ID3 (11757404_x_at) / RFU PLEKHG5 (11737974_s_at) / Fold change /veh PLEKHG5 (11737974_s_at) / RFU LRRC4B (11730491_at) / Fold change /veh LRRC4B (11730491_at) / RFU GIMAP4 (11747438_a_at) / Fold change /veh GIMAP4 (11747438_a_at) / RFU KRT8 (11758183_x_at) / Fold change /veh KRT8 (11758183_x_at) / RFU CNN1 (11734310_a_at) / Fold change /veh CNN1 (11734310_a_at) / RFU VPS37D (11726825_at) / Fold change /veh VPS37D (11726825_at) / RFU C10orf10 (11716522_x_at) / Fold change /veh C10orf10 (11716522_x_at) / RFU KIR2DL2 /// KIR2DL4 /// KIR2DL5A /// KIR2DL5B /// KIR2DS1 /// KIR2DS2 /// KIR2DS3 /// KIR2DS4 /// KIR3DL3 /// KIR3DL3 /// KIR3DS1 (11738374_at) / Fold change /veh KIR2DL2 /// KIR2DL4 /// KIR2DL5A /// KIR2DL5B /// KIR2DS1 /// KIR2DS2 /// KIR2DS3 /// KIR2DS4 /// KIR3DL3 /// KIR3DL3 /// KIR3DS1 (11738374_at) / RFU C1QL1 (11718748_at) / Fold change /veh C1QL1 (11718748_at) / RFU TMPRSS4 (11747572_a_at) / Fold change /veh TMPRSS4 (11747572_a_at) / RFU HAMP (11756126_x_at) / Fold change /veh HAMP (11756126_x_at) / RFU RNFT2 (11725882_a_at) / Fold change /veh RNFT2 (11725882_a_at) / RFU NR4A2 (11747474_a_at) / Fold change /veh NR4A2 (11747474_a_at) / RFU ABCC12 (11746883_a_at) / Fold change /veh ABCC12 (11746883_a_at) / RFU TMEM136 (11760407_x_at) / Fold change /veh TMEM136 (11760407_x_at) / RFU CLDN22 /// WWC2 (11732394_at) / Fold change /veh CLDN22 /// WWC2 (11732394_at) / RFU HLA-DPB1 (11760878_x_at) / Fold change /veh HLA-DPB1 (11760878_x_at) / RFU SPINT1 (11716480_a_at) / Fold change /veh SPINT1 (11716480_a_at) / RFU GAP43 (11754022_s_at) / Fold change /veh GAP43 (11754022_s_at) / RFU A4GNT (11735810_at) / Fold change /veh A4GNT (11735810_at) / RFU PRB3 (11715151_x_at) / Fold change /veh PRB3 (11715151_x_at) / RFU TUBB4B (11761932_at) / Fold change /veh TUBB4B (11761932_at) / RFU CAPN14 (11732068_a_at) / Fold change /veh CAPN14 (11732068_a_at) / RFU TMCC2 (11721928_a_at) / Fold change /veh TMCC2 (11721928_a_at) / RFU IRGQ (11745062_a_at) / Fold change /veh IRGQ (11745062_a_at) / RFU FAM174B (11720279_a_at) / Fold change /veh FAM174B (11720279_a_at) / RFU TMPRSS4 (11748680_a_at) / Fold change /veh TMPRSS4 (11748680_a_at) / RFU FAM212B (11763350_a_at) / Fold change /veh FAM212B (11763350_a_at) / RFU PLEKHG5 (11743358_a_at) / Fold change /veh PLEKHG5 (11743358_a_at) / RFU ZSCAN30 (11745921_a_at) / Fold change /veh ZSCAN30 (11745921_a_at) / RFU CMKLR1 (11741424_a_at) / Fold change /veh CMKLR1 (11741424_a_at) / RFU LOC101060620 /// MAPK8IP1 (11723275_at) / Fold change /veh LOC101060620 /// MAPK8IP1 (11723275_at) / RFU SPTSSB (11747773_x_at) / Fold change /veh SPTSSB (11747773_x_at) / RFU PRSS12 (11739890_at) / Fold change /veh PRSS12 (11739890_at) / RFU BIN1 (11741810_x_at) / Fold change /veh BIN1 (11741810_x_at) / RFU WNT11 (11732464_a_at) / Fold change /veh WNT11 (11732464_a_at) / RFU C10orf10 (11716521_a_at) / Fold change /veh C10orf10 (11716521_a_at) / RFU C5orf56 (11738089_at) / Fold change /veh C5orf56 (11738089_at) / RFU CYB561 (11721691_x_at) / Fold change /veh CYB561 (11721691_x_at) / RFU ANKRD19P (11752326_a_at) / Fold change /veh ANKRD19P (11752326_a_at) / RFU OR2T12 /// OR2T33 /// OR2T8 (11738714_s_at) / Fold change /veh OR2T12 /// OR2T33 /// OR2T8 (11738714_s_at) / RFU VCAN (11748164_a_at) / Fold change /veh VCAN (11748164_a_at) / RFU JSRP1 (11732532_at) / Fold change /veh JSRP1 (11732532_at) / RFU KRTAP10-11 (11738290_x_at) / Fold change /veh KRTAP10-11 (11738290_x_at) / RFU MYO3A (11730013_a_at) / Fold change /veh MYO3A (11730013_a_at) / RFU EBF3 (11725865_a_at) / Fold change /veh EBF3 (11725865_a_at) / RFU CAMK2N1 (11719241_x_at) / Fold change /veh CAMK2N1 (11719241_x_at) / RFU C5orf56 (11738088_a_at) / Fold change /veh C5orf56 (11738088_a_at) / RFU OLFML3 (11715873_a_at) / Fold change /veh OLFML3 (11715873_a_at) / RFU LOC100653217 /// NTM (11731650_a_at) / Fold change /veh LOC100653217 /// NTM (11731650_a_at) / RFU MAPK11 (11762145_a_at) / Fold change /veh MAPK11 (11762145_a_at) / RFU FIZ1 (11724087_x_at) / Fold change /veh FIZ1 (11724087_x_at) / RFU OASL (11726364_x_at) / Fold change /veh OASL (11726364_x_at) / RFU SOX15 (11748057_x_at) / Fold change /veh SOX15 (11748057_x_at) / RFU CD79A (11719716_a_at) / Fold change /veh CD79A (11719716_a_at) / RFU HIST1H1D (11736915_at) / Fold change /veh HIST1H1D (11736915_at) / RFU CASKIN2 (11723855_a_at) / Fold change /veh CASKIN2 (11723855_a_at) / RFU LOC730098 (11760151_x_at) / Fold change /veh LOC730098 (11760151_x_at) / RFU OR4N2 (11742367_at) / Fold change /veh OR4N2 (11742367_at) / RFU PRRT2 (11749266_a_at) / Fold change /veh PRRT2 (11749266_a_at) / RFU SNX32 (11753110_a_at) / Fold change /veh SNX32 (11753110_a_at) / RFU CDHR5 (11726645_a_at) / Fold change /veh CDHR5 (11726645_a_at) / RFU RCAN1 (11760418_a_at) / Fold change /veh RCAN1 (11760418_a_at) / RFU FAM167A (11723789_a_at) / Fold change /veh FAM167A (11723789_a_at) / RFU FAM26E (11764081_at) / Fold change /veh FAM26E (11764081_at) / RFU ISYNA1 (11749810_s_at) / Fold change /veh ISYNA1 (11749810_s_at) / RFU ACY1 (11761880_at) / Fold change /veh ACY1 (11761880_at) / RFU 11764098_at / Fold change /veh 11764098_at / RFU SAMD14 (11745864_x_at) / Fold change /veh SAMD14 (11745864_x_at) / RFU NPB (11741838_a_at) / Fold change /veh NPB (11741838_a_at) / RFU TMPRSS6 (11731388_a_at) / Fold change /veh TMPRSS6 (11731388_a_at) / RFU KRTAP10-2 (11738614_at) / Fold change /veh KRTAP10-2 (11738614_at) / RFU ARHGAP8 /// PRR5-ARHGAP8 (11727945_x_at) / Fold change /veh ARHGAP8 /// PRR5-ARHGAP8 (11727945_x_at) / RFU KRTAP5-7 /// NADSYN1 (11734609_at) / Fold change /veh KRTAP5-7 /// NADSYN1 (11734609_at) / RFU RASL12 (11751679_a_at) / Fold change /veh RASL12 (11751679_a_at) / RFU CDKN2B (11736163_a_at) / Fold change /veh CDKN2B (11736163_a_at) / RFU PRF1 (11729649_at) / Fold change /veh PRF1 (11729649_at) / RFU, ZNF638 /// ZNF638-IT1 / Fold change vs veh, ZNF638 /// ZNF638-IT1 / RFU, PANK3 / Fold change vs veh, PANK3 / RFU, SH3YL1 / Fold change vs veh, SH3YL1 / RFU, ZEB2 / Fold change vs veh, ZEB2 / RFU, NRIP1 / Fold change vs veh, NRIP1 / RFU, PTTG1IP / Fold change vs veh, PTTG1IP / RFU, CAPN2 / Fold change vs veh, CAPN2 / RFU, MED14 / Fold change vs veh, MED14 / RFU, SNORA58 / Fold change vs veh, SNORA58 / RFU, C1orf63 / Fold change vs veh, C1orf63 / RFU, LRRFIP1 / Fold change vs veh, LRRFIP1 / RFU, NDUFAF7 / Fold change vs veh, NDUFAF7 / RFU, SLC12A2 / Fold change vs veh, SLC12A2 / RFU, IBTK / Fold change vs veh, IBTK / RFU, ESF1 / Fold change vs veh, ESF1 / Fold change vs veh, TMEM50B / RFU, TAOK1 / Fold change vs veh, TAOK1 / RFU, ACBD3 / Fold change vs veh, ACBD3 / RFU, TMA16 / Fold change vs veh, TMA16 / RFU, RWDD3 / Fold change vs veh, RWDD3 / RFU, BCAT1 / Fold change vs veh, BCAT1 / RFU, EDEM3 / Fold change vs veh, EDEM3 / RFU, TMEM33 / Fold change vs veh, TMEM33 / RFU, WDR75 / Fold change vs veh, WDR75 / RFU, AHCTF1 / Fold change vs veh, AHCTF1 / RFU, TFRC / Fold change vs veh, TFRC / RFU, ZDHHC17 / Fold change vs veh, ZDHHC17 / RFU, NOM1 / Fold change vs veh, NOM1 / RFU, ARL8B / Fold change vs veh, ARL8B / RFU, ZBTB11 / Fold change vs veh, ZBTB11 / RFU, TAMM41 / Fold change vs veh, TAMM41 / RFU, KIAA1704 /// LOC100996395 / Fold change vs veh, KIAA1704 /// LOC100996395 / RFU, ING1 / Fold change vs veh, ING1 / RFU, TRMT61B / Fold change vs veh, TRMT61B / RFU, FUBP3 / Fold change vs veh, FUBP3 / RFU, TP53 / Fold change vs veh, TP53 / RFU, TNKS2 / Fold change vs veh, TNKS2 / RFU, ZFP14 / Fold change vs veh, ZFP14 / RFU, ACTR2 / Fold change vs veh, ACTR2 / RFU, PPP3R1 / Fold change vs veh, PPP3R1 / RFU, PIK3R1 / Fold change vs veh, PIK3R1 / RFU, HNRNPA1 / Fold change vs veh, HNRNPA1 / RFU, RNF170 / Fold change vs veh, RNF170 / RFU, ZNF28 / Fold change vs veh, ZNF28 / RFU, RNGTT / Fold change vs veh, RNGTT / RFU, OGT / Fold change vs veh, OGT / RFU, BRD1 / Fold change vs veh, BRD1 / RFU, MARS / Fold change vs veh, MARS / RFU, ZNF655 / Fold change vs veh, ZNF655 / RFU, FAHD1 / Fold change vs veh, FAHD1 / RFU, BDP1 / Fold change vs veh, BDP1 / RFU, LRRCC1 / Fold change vs veh, LRRCC1 / RFU, ARID1A / Fold change vs veh, ARID1A / RFU, ZNF146 / Fold change vs veh, ZNF146 / RFU, ZNF330 / Fold change vs veh, ZNF330 / RFU, GPN3 / Fold change vs veh, GPN3 / RFU, C9orf123 / Fold change vs veh, C9orf123 / RFU, N4BP2L2 / Fold change vs veh, N4BP2L2 / RFU, ARFIP1 / Fold change vs veh, ARFIP1 / RFU, FAM179B / Fold change vs veh, FAM179B / RFU, BCL10 / Fold change vs veh, BCL10 / RFU, UHRF1BP1L / Fold change vs veh, UHRF1BP1L / RFU, BET1 / Fold change vs veh, BET1 / RFU, CNOT2 / Fold change vs veh, CNOT2 / RFU, ZNF268 / Fold change vs veh, ZNF268 / Fold change vs veh, ZNF507 / RFU, DGCR2 / Fold change vs veh, DGCR2 / RFU, WDSUB1 / Fold change vs veh, WDSUB1 / Fold change vs veh, HSP90B1 /// MIR3652 / RFU, ADSS / Fold change vs veh, ADSS / RFU, GK / Fold change vs veh, GK / RFU, ZNF148 / Fold change vs veh, ZNF148 / RFU, TAF9 / Fold change vs veh, TAF9 / RFU, SLC1A5 / Fold change vs veh, SLC1A5 / RFU, SLMO2 / Fold change vs veh, SLMO2 / RFU, ABCC4 / Fold change vs veh, ABCC4 / RFU, LOC101060439 /// RAP1B / Fold change vs veh, LOC101060439 /// RAP1B / RFU, RFX7 / Fold change vs veh, RFX7 / RFU, GTPBP10 / Fold change vs veh, GTPBP10 / RFU, CNEP1R1 / Fold change vs veh, CNEP1R1 / RFU, BIVM-ERCC5 /// ERCC5 / Fold change vs veh, BIVM-ERCC5 /// ERCC5 / RFU, ILF3 / Fold change vs veh, ILF3 / RFU 11762660_at / Fold change /veh 11762660_at / RFU VCAN (11757783_s_at) / Fold change /veh VCAN (11757783_s_at) / RFU DDX43 (11728927_at) / Fold change /veh DDX43 (11728927_at) / RFU KRT8 (11758188_x_at) / Fold change /veh KRT8 (11758188_x_at) / RFU NKD1 (11759106_at) / Fold change /veh NKD1 (11759106_at) / RFU SRD5A1 (11742802_a_at) / Fold change /veh SRD5A1 (11742802_a_at) / RFU TPSAB1 /// TPSB2 (11721975_s_at) / Fold change /veh TPSAB1 /// TPSB2 (11721975_s_at) / RFU GSTM3 (11746129_a_at) / Fold change /veh GSTM3 (11746129_a_at) / RFU IL23R (11737362_x_at) / Fold change /veh IL23R (11737362_x_at) / RFU TMEM51 (11727254_a_at) / Fold change /veh TMEM51 (11727254_a_at) / RFU PIWIL2 (11732686_x_at) / Fold change /veh PIWIL2 (11732686_x_at) / RFU ORM1 (11744905_x_at) / Fold change /veh ORM1 (11744905_x_at) / RFU CCDC152 (11743942_at) / Fold change /veh CCDC152 (11743942_at) / RFU ECM1 (11717891_a_at) / Fold change /veh ECM1 (11717891_a_at) / RFU IL23R (11748794_a_at) / Fold change /veh IL23R (11748794_a_at) / RFU TNFAIP8L3 (11732012_x_at) / Fold change /veh TNFAIP8L3 (11732012_x_at) / RFU MBOAT4 (11741988_at) / Fold change /veh MBOAT4 (11741988_at) / RFU 11764193_at / Fold change /veh 11764193_at / RFU TMEM53 (11763286_at) / Fold change /veh TMEM53 (11763286_at) / RFU MAGEB2 (11727129_at) / Fold change /veh MAGEB2 (11727129_at) / RFU TMEM200A (11744735_a_at) / Fold change /veh TMEM200A (11744735_a_at) / RFU CCDC152 (11751479_a_at) / Fold change /veh CCDC152 (11751479_a_at) / RFU FAM211A (11726209_a_at) / Fold change /veh FAM211A (11726209_a_at) / RFU RGS16 (11746705_a_at) / Fold change /veh RGS16 (11746705_a_at) / RFU VCAN (11755009_s_at) / Fold change /veh VCAN (11755009_s_at) / RFU RHOB (11743442_s_at) / Fold change /veh RHOB (11743442_s_at) / RFU RGS16 (11720943_a_at) / Fold change /veh RGS16 (11720943_a_at) / RFU RGS16 (11720944_at) / Fold change /veh RGS16 (11720944_at) / RFU, VPS4B / Fold change vs veh, VPS4B / RFU, CREB1 / Fold change vs veh, CREB1 / RFU, DNAJC13 / Fold change vs veh, DNAJC13 / RFU, GNAQ / Fold change vs veh, GNAQ / RFU, CDK5R1 / Fold change vs veh, CDK5R1 / RFU, ZRANB3 / Fold change vs veh, ZRANB3 / RFU, CUL4A / Fold change vs veh, CUL4A / RFU, CCNY / Fold change vs veh, CCNY / RFU, UFL1 / Fold change vs veh, UFL1 / RFU, COG3 / Fold change vs veh, COG3 / RFU, DIAPH2 / Fold change vs veh, DIAPH2 / RFU, SKA2 / Fold change vs veh, SKA2 / RFU, AFF3 / Fold change vs veh, AFF3 / RFU, LMF1 / Fold change vs veh, LMF1 / RFU, IPO11 / Fold change vs veh, IPO11 / RFU, DFFB / Fold change vs veh, DFFB / RFU, FOXP1 / Fold change vs veh, FOXP1 / RFU, CARD8 / Fold change vs veh, CARD8 / RFU, STRN3 / Fold change vs veh, STRN3 / RFU, ADK / Fold change vs veh, ADK / RFU, RASSF2 / Fold change vs veh, RASSF2 / RFU, WIPF1 / Fold change vs veh, WIPF1 / RFU, LARP1B / Fold change vs veh, LARP1B / RFU, RASA1 / Fold change vs veh, RASA1 / RFU, RB1 / Fold change vs veh, RB1 / RFU, PPFIA1 / Fold change vs veh, PPFIA1 / RFU, MAT2A / Fold change vs veh, MAT2A / RFU, CCT5 / Fold change vs veh, CCT5 / RFU, WDR92 / Fold change vs veh, WDR92 / RFU, CUX1 / Fold change vs veh, CUX1 / RFU, TTC7A / Fold change vs veh, TTC7A / RFU, TMEM135 / Fold change vs veh, TMEM135 / RFU, DEPTOR / Fold change vs veh, DEPTOR / RFU, CPM / Fold change vs veh, CPM / RFU, DNAJB6 / Fold change vs veh, DNAJB6 / RFU, CACNA2D3 / Fold change vs veh, CACNA2D3 / RFU, DTX4 / Fold change vs veh, DTX4 / RFU, TFCP2 / Fold change vs veh, TFCP2 / RFU, GMCL1 /// GMCL1P1 / Fold change vs veh, GMCL1 /// GMCL1P1 / RFU, AEBP2 / Fold change vs veh, AEBP2 / RFU, SNHG1 /// SNORD22 /// SNORD25 /// SNORD26 /// SNORD27 /// SNORD28 /// SNORD29 /// SNORD31 / Fold change vs veh, SNHG1 /// SNORD22 /// SNORD25 /// SNORD26 /// SNORD27 /// SNORD28 /// SNORD29 /// SNORD31 / Fold change (Aza/veh), C12orf56 (ProbeSet 11735607_a_at) / Fold change (ACY-1035/veh), C12orf56 (ProbeSet 11735607_a_at) / Fold change (Aza/veh), FGFR1OP (ProbeSet 11751329_s_at) / Fold change (ACY-1035/veh), FGFR1OP (ProbeSet 11751329_s_at) / Fold change (Aza/veh), VPS36 (ProbeSet 11739960_a_at) / Fold change (ACY-1035/veh), VPS36 (ProbeSet 11739960_a_at) / RFU SYPL1 (11715823_x_at) / Fold change /veh SYPL1 (11715823_x_at) / RFU IGFBP7 (11715501_s_at) / Fold change /veh IGFBP7 (11715501_s_at) / RFU REEP3 (11722064_at) / Fold change /veh REEP3 (11722064_at) / RFU IGLL1 (11728026_x_at) / Fold change /veh IGLL1 (11728026_x_at): dose or concentration left out as unconfirmed", "details": "MV-4-11 cells, 48 hours"}
{"smiles": "Nc1ncn([C@@H]2O[C@H](CO)[C@@H](O)[C@H]2O)c(=O)n1", "note": "[azacitidine]", "values": [{"measurement": "RFU C5orf56 (11738089_at)", "value": 11.14, "unit": "RFU"}]}
